Reference: patent US8778919B2, “Cyclic anilino—pyridinotriazines” (Janssen Pharmaceutica NV, priority 2005, dated 2014)

How the values were obtained:
Assay type in all cases: biochemical
GSK-3α = GSK-3α (Homo sapiens, UniProt P49840); experiment: GSK-3 kinase assay (C1), GSK-3α; details: 1 μM ATP, read-out: C1 Score α
Description: (§1) In vitro GSK-3 assays were performed at room temperature in a 100 μl reaction volume of 25 mM Tris (pH 7.4) containing 10 mM MgCl2.6H2O, 1 mM DTT, 0.1 mg/ml BSA, 5% glycerol, 5.7 ng/μl GSK-3β or 0.25 ng/μl GSK-3α, 5 μM biotinylated CREB peptide, 1 μM ATP, 0.85 μCi/ml ^33P-ATP and a suitable amount of a test compound. After one hour, the reaction was terminated by adding 70 μl of Stop mix (0.1 mM ATP, 5 mg/ml streptavidin coated PVT SPA beads, pH 11.0). The beads were allowed to settle overnight and the radioactivity attached to the beads was counted in a microtiter plate scintillation counter and compared with the results obtained in a control experiment (without the presence of a test compound) in order to determine the percentage of GSK-3 inhibition. The IC50 value, i.e. the concentration (M) of the test compound at which 50% of GSK-3 is inhibited, was calculated from the dose response curve obtained by performing the above-described GSK-3 assay in the presence of different amounts of the test compound. Score 1=pIC50 value<6, Score 2=pIC50 value from 6-7, Score 3=pIC50 value from 7-8, Score 4=pIC50 value>8.

GSK-3β = GSK-3β (Homo sapiens, UniProt P49841); experiment: GSK-3 kinase assay (C1), GSK-3β; details: 1 μM ATP, read-out: C1 Score β
Sequence of GSK-3β (P49841 whole entry, species assumed): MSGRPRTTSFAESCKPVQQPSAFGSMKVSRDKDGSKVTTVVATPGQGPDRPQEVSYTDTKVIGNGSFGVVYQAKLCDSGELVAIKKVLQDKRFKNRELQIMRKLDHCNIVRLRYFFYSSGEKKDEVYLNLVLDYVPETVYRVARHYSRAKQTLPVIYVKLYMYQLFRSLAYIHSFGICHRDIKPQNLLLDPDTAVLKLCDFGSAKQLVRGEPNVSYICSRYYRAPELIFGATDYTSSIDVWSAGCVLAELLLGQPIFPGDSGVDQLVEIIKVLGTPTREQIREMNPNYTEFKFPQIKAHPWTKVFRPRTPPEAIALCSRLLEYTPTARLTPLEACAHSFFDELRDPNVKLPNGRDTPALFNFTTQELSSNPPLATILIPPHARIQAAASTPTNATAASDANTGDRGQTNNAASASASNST
Description: as §1

CDK1/cyclinB (h) = CDK1/cyclinB (h) (Homo sapiens, UniProt P06493); experiment: Kinase profiling C3.2 CDK1/cyclinB human; details: test concentration of 10^−6 M
Sequence of CDK1/cyclinB (h) (P06493 whole entry): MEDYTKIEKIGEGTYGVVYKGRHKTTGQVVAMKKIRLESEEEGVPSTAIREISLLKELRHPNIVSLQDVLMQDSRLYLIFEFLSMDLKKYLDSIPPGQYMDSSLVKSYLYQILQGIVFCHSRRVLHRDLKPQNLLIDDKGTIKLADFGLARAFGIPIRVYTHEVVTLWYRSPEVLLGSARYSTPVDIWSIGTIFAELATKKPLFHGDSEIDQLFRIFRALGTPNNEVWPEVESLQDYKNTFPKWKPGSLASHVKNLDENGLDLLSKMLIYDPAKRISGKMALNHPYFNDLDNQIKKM
Sequence of CDK1/cyclinB (h) (P14635 whole entry partner): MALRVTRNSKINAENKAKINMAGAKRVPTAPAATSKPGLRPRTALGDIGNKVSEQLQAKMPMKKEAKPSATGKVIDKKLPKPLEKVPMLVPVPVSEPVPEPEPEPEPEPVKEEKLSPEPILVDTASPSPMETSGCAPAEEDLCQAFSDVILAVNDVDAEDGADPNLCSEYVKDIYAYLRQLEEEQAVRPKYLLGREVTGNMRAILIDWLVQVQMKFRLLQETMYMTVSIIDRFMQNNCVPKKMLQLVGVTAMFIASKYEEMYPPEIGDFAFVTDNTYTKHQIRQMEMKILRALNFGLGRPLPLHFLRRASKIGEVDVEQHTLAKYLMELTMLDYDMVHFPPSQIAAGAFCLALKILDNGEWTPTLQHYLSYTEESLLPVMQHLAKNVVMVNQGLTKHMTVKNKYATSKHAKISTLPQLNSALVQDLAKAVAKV
Description: (§2) The in vitro inhibition of a panel of kinases was assessed using either the glass-fiber filter technology as described by Davies, S. P. et al., Biochem J. (2000), 351; p. 95-105. In the glass-fiber filter technology the activity of the kinase of interest is measured using an appropriate substrate that is incubated with the aforementioned kinase protein in the presence of (^33P) radiolabeled ATP. (^33P) Phosporylation of the substrate is subsequently measured as radioactivity bound on a glassfiber-filter.
(§3) All kinases are pre-diluted to a 10× working concentration prior to addition into the assay. The composition of the dilution buffer for each kinase is detailed below.
(§4) All substrates are dissolved and diluted to working stocks in de-ionised water, apart from histone H1 that is stored in 10× working stock in 20 mM MOPS pH 7.4.
(§5) In a final reaction volume of 25 μl, CDK1/cyclinB (h) (5-10 mU) is incubated with 8 mM MOPS pH 7.0, 0.2 mM EDTA, 0.1 mg/ml histone H1, 10 mM MgAcetate and [γ-^33P-ATP] (specific activity approx. 500 cpm/pmol, concentration as required). The reaction is initiated by the addition of the MgATP mix. After incubation for 40 minutes at room temperature, the reaction is stopped by the addition of 5 μl of a 3% phosphoric acid solution. 10 μl of the reaction is then spotted onto a P30 filtermat and washed three times for 5 minutes in 75 mM phosphoric acid and once in methanol prior to drying and scintillation counting.

CDK2/cyclinA (h) = CDK2/cyclinA (h) (Homo sapiens, UniProt P24941); experiment: Kinase profiling C3.3 CDK2/cyclinA human; details: test concentration of 10^−6 M
Description: as §2, §3, §4
as §5, with “CDK2/cyclinA” for “CDK1/cyclinB”

CDK2/cyclinE (h) = CDK2/cyclinE (h) (Homo sapiens, UniProt P24941); experiment: Kinase profiling C3.4 CDK2/cyclinE human; details: test concentration of 10^−6 M
Description: as §2, §3, §4
as §5, with “CDK2/cyclinE” for “CDK1/cyclinB”

CDK3/cyclinE (h) = CDK3/cyclinE (h) (Homo sapiens, UniProt Q00526); experiment: Kinase profiling C3.5 CDK3/cyclinE human; details: test concentration of 10^−6 M
Description: as §2, §3, §4
as §5, with “CDK3/cyclinE” for “CDK1/cyclinB”

CDK5/p35 human = CDK5/p35 human (Homo sapiens, UniProt Q00535); experiment: Kinase profiling C3.6 CDK5/p35 human; details: CDK5/p35, test concentration of 10^−6 M
Sequence of CDK5/p35 human (Q00535 whole entry): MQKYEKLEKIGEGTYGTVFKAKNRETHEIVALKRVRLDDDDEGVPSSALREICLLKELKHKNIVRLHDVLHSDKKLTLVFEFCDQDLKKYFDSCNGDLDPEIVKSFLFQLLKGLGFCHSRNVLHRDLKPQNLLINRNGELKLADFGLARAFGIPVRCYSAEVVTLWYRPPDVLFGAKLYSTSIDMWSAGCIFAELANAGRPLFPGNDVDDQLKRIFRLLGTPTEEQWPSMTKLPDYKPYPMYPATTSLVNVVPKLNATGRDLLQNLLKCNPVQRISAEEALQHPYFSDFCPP
Sequence of CDK5/p35 human (Q15078 whole entry partner): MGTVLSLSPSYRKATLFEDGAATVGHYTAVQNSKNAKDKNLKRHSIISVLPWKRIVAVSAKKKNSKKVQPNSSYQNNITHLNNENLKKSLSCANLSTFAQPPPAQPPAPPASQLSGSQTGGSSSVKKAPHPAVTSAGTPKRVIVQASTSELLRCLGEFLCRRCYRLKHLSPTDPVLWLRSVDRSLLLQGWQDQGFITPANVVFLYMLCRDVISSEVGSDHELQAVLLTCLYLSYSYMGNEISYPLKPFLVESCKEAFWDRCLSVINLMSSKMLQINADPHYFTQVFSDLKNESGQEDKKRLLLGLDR
Description: as §2, §3, §4
as §5, with “CDK5/p35 human” for “CDK1/cyclinB (h)”

CDK7/cyclinH/MAT1 (h) = CDK7/cyclinH/MAT1 (h) (Homo sapiens, UniProt P50613); experiment: Kinase profiling C3.8 CDK7/cyclinH/MAT1 human; details: CDK7/cyclinH/MAT1, test concentration of 10^−6 M
Sequence of CDK7/cyclinH/MAT1 (h) (P50613 whole entry): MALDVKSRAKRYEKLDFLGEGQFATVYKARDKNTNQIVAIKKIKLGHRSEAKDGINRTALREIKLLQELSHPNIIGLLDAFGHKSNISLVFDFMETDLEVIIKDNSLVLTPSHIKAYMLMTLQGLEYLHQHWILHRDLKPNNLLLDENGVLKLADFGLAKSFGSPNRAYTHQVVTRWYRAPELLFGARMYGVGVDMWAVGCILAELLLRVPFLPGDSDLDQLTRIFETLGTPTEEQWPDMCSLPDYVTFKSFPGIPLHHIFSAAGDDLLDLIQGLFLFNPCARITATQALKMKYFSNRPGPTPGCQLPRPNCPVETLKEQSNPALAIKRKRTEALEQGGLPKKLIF
Sequence of CDK7/cyclinH/MAT1 (h) (P51946 whole entry partner): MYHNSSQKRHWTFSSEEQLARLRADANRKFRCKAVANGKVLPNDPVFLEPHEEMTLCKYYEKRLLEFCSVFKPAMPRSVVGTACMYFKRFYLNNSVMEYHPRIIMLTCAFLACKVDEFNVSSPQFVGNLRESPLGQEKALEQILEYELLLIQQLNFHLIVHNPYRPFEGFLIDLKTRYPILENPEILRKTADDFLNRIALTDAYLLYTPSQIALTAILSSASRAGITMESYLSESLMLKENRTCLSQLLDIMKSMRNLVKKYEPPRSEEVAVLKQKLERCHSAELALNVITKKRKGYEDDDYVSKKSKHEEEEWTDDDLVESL
Sequence of CDK7/cyclinH/MAT1 (h) (P51948 whole entry partner): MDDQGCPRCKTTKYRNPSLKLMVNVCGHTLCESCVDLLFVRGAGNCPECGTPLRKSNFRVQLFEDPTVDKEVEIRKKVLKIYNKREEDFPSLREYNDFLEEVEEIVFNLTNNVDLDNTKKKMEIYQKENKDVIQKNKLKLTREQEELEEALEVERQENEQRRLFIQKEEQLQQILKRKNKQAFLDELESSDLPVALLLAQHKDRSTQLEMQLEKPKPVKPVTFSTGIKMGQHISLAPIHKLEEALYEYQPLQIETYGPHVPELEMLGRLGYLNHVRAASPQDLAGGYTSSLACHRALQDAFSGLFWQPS
Description: as §2, §3, §4
as §5, with “CDK7/cyclinH/MAT1” for “CDK1/cyclinB”, “500 μM peptide,” for “0.1 mg/ml histone H1,”

Sequence of GSK-3α (P49840 whole entry, species assumed): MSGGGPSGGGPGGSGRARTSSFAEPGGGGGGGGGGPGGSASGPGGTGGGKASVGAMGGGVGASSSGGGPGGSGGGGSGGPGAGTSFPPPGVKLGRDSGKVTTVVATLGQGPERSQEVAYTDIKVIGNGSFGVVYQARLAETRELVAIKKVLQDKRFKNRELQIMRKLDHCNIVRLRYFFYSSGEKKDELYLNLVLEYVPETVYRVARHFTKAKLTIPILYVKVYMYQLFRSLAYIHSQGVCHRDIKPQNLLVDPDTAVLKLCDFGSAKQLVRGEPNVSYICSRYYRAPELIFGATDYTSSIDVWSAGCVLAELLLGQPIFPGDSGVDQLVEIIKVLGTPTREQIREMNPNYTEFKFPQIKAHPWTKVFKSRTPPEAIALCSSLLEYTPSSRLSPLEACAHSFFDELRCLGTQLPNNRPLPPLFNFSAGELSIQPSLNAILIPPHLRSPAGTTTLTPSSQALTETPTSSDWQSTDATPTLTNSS

Structure (SMILES) | IC50 (GSK-3α) [nM] | other results
C[C@@H]1NCc2cccc(c2)Nc2ncnc(n2)-c2cccc(c2)NCCNC1=O [Compound 63] | 100 to 1000 | –
O=C1CCN2CCN(CC2)Cc2cccc(c2)Nc2ncnc(n2)-c2cccc(c2)CCCN1 [Compound 57] | 100 to 1000 | –
C[C@@H]1NCc2cccc(c2)Nc2ncnc(n2)-c2cccc(c2)CCCNC1=O [Compound 44] | 100 to 1000 | –
CN1CC(=O)N2CCN(CCc3cc(ccn3)-c3ncnc(n3)Nc3cccc(c3)C1)CC2 [Compound 77] | 100 to 1000 | –
O=C1NCCNc2cccc(c2)-c2ncnc(n2)Nc2cccc(c2)CN[C@H]1Cc1ccccc1 [Compound 64] | 100 to 1000 | –
O=C1NCCOc2ccc(cc2)-c2ncnc(n2)Nc2cccc(c2)CN2CCC1CC2 [Compound 73] | 100 to 1000 | –
O=C1CNCc2cccc(c2)Nc2ncnc(n2)-c2cccc(c2)CCCN1 [Compound 42] | 100 to 1000 | –
O=C1CCN2CCN(CC2)Cc2cccc(c2)Nc2ncnc(n2)-c2cccc(c2)NCCN1 [Compound 60] | 100 to 1000 | –
CN1CC(=O)NCCNc2cccc(c2)-c2ncnc(n2)Nc2cccc(c2)C1 [Compound 43] | 100 to 1000 | IC50 (GSK-3β): 10 to 100 nM
O=C1NCCNc2cccc(c2)-c2ncnc(n2)Nc2cccc(c2)CN2CCCC1C2 (stereo not shown) [Compound 61] | 100 to 1000 | –
C[C@H]1NCCCc2cccc(c2)-c2ncnc(n2)Nc2ccccc2CNC1=O [Compound 80] | 100 to 1000 | –
O=C1NCCCc2cc(ccn2)-c2ncnc(n2)Nc2cc(Cl)cc(c2)CN2CCCC1C2 (stereo not shown) [Compound 39] | 100 to 1000 | IC50 (GSK-3β): 10 to 100 nM; C3.2 score (CDK1/cyclinB (h)): 2 (Score 2 = 30-60% inhibition); C3.3 score (CDK2/cyclinA (h)): 3 (Score 3 = 60-80% inhibition); C3.4 score (CDK2/cyclinE (h)): 3 (Score 3 = 60-80% inhibition); C3.5 score (CDK3/cyclinE (h)): 2 (Score 2 = 30-60% inhibition); C3.6 score (CDK5/p35 human): 1 (Score 1 = 10-30% inhibition); C3.8 score (CDK7/cyclinH/MAT1 (h)): 3 (Score 3 = 60-80% inhibition)
C=CCN1CC(=O)NCCNc2ncccc2-c2ncnc(n2)Nc2cccc(c2)C1 [Compound 79] | 100 to 1000 | –
O=C1NCCCc2cccc(c2)-c2ncnc(n2)Nc2cccc(c2)CN2CCC[C@@H]12 [Compound 56] | 100 to 1000 | –
CC1(C)NCc2cccc(c2)Nc2ncnc(n2)-c2cccc(c2)CCCNC1=O [Compound 48] | 100 to 1000 | –
O=C1NCCCc2cc(ccn2)-c2ncnc(n2)Nc2cc(Cl)cc(c2)CN2CCC[C@@H]12 [Compound 38] | 100 to 1000 | IC50 (GSK-3β): 100 to 1000 nM; C3.2 score (CDK1/cyclinB (h)): 4 (Score 4 = >80% inhibition); C3.3 score (CDK2/cyclinA (h)): 4 (Score 4 = >80% inhibition); C3.4 score (CDK2/cyclinE (h)): 4 (Score 4 = >80% inhibition); C3.5 score (CDK3/cyclinE (h)): 3 (Score 3 = 60-80% inhibition); C3.6 score (CDK5/p35 human): 2 (Score 2 = 30-60% inhibition); C3.8 score (CDK7/cyclinH/MAT1 (h)): 3 (Score 3 = 60-80% inhibition)
CN1CCC(=O)NCCCCc2cc(ccn2)-c2ncnc(n2)Nc2cccc(c2)C1 [Compound 68] | 100 to 1000 | –

The next lines start with results.

IC50 (GSK-3α) [nM] | Structure (SMILES) | other results
100 to 1000 | O=C1NCCNc2cccc(c2)-c2ncnc(n2)Nc2cccc(c2)CN2CCC1CC2 [Compound 62] | –
10 to 100 | CN1CCCC(=O)NCCCc2cccc(c2)-c2ncnc(n2)Nc2cccc(c2)C1 [Compound 53] | –
10 to 100 | O=C1NCCCc2cccc(c2)-c2ncnc(n2)Nc2cccc(c2)CN[C@H]1Cc1ccccc1 [Compound 45] | –
100 to 1000 | O=C1NCCc2cccc(c2)Nc2ncnc(n2)-c2ccnc(c2)CCCN2CCCC12 (stereo not shown) [Compound 28] | IC50 (GSK-3β): 10 to 100 nM
10 to 100 | O=C1COc2cccc(c2)Nc2ncnc(n2)-c2ccnc(c2)CCCN2CCN1CC2 [Compound 78] | –
10 to 100 | CN1CCC(=O)NCCCc2cccc(c2)-c2ncnc(n2)Nc2cccc(c2)C1 [Compound 49] | –
10 to 100 | O=C1NCCCc2cc(ccn2)-c2ncnc(n2)Nc2cccc(c2)CN2CCC1CC2 [Compound 16] | IC50 (GSK-3β): 10 to 100 nM
10 to 100 | O=C1COc2cccc(c2)Nc2ncnc(n2)-c2ccnc(c2)CCCN1 [Compound 74] | –
< 10 | CN1CC(=O)NCCOc2cccc(c2)Nc2ncnc(n2)-c2ccnc(c2)C1 [Compound 76] | –
10 to 100 | C[C@H]1NCc2cccc(c2)Nc2ncnc(n2)-c2cccc(c2)CCCNC1=O [Compound 47] | –
10 to 100 | O=C1NCCCc2cccc(c2)-c2ncnc(n2)Nc2cccc(c2)CN2C[C@@H](O)C[C@H]12 [Compound 50] | –
10 to 100 | O=C1NCCCc2cccc(c2)-c2ncnc(n2)Nc2cccc(c2)CN2CCCC1C2 (stereo not shown) [Compound 55] | –
10 to 100 | O=C1CCN2CCN(CCCc3cc(ccn3)-c3ncnc(n3)Nc3cccc(c3)CCN1)CC2 [Compound 29] | IC50 (GSK-3β): 10 to 100 nM
10 to 100 | O=C1NCCCc2cccc(c2)-c2ncnc(n2)Nc2cccc(c2)CN2CCC1CC2 [Compound 51] | –
